{"source": "patent US9932637B2", "about": "“Genetic polymorphisms associated with cardiovascular disorders and drug response, methods of detection and uses thereof” (CELERA CORPORATION, priority 2003, dated 2018)", "system": "patients with prior myocardial infarction (CARE study)", "experiment": "CARE: association of SNPs with pravastatin treatment in RMI prevention (genotypic RR in placebo and statin strata; Table 10)", "assay_type": "in vivo, human", "text": "In order to identify genetic markers associated with acute coronary events (e.g. MI, stroke, unstable angina, congestive heart failure, etc.) or response to statin treatment for the prevention of coronary events, samples from the Cholesterol and Recurrent Events (CARE) study (a randomized multicentral double-blinded trial on secondary prevention of acute coronary events with pravastatin) (Sacks et al., 1991, Am. J. Cardiol. 68: 1436-1446) were genotyped. A well-documented myocardial infarction (MI) was one of the enrollment criteria for entry into the CARE study. Patients were enrolled in the CARE trial from 80 participating study centers. […] Patients were randomized to receive either 40 mg of pravastatin once daily or a matching placebo. The primary endpoint of the trial was death from coronary heart disease and the median duration of follow-up was 5.0 years (range, 4.0 to 6.2 years). […] Secondary endpoints of other related cardiovascular or metabolic disease events, and changes in clinical variables were also recorded in pravastatin-treated and placebo groups. All individuals included in the study had signed a written informed consent form and the study protocol was approved by the respective Institutional Review Boards (IRBs).\nFor genotyping SNPs in CARE patient samples, DNA was extracted from blood samples using conventional DNA extraction methods such as the QIA-amp kit from Qiagen. Genotypes were obtained on an ABI PRISM® 7900HT Sequence Detection PCR system (Applied Biosystems, Foster City, Calif.) by kinetic allele-specific PCR, similar to the method described by Germer et al. (Germer S., Holland M. J., Higuchi R. 2000, Genome Res. 10: 258-266).\nFor statistical analysis of association of SNPs with pravastatin treatment in RMI prevention (Table 10), effect sizes were estimated through genotypic RR, including 95% CIs. Homogeneity of Cochran-Mantel-Haenszel odds ratios was tested across pravastatin and placebo strata using the Wald test. […] (this adjustment supports independence of the SNP association from conventional risk factors). This table also provides the frequency data for the at risk allele in the columns labeled “Case Y PRIMER ALLELE Nucleotide Frequency” and “Control Y PRIMER ALLELE Nucleotide Frequency”. Allele frequencies for the cases and controls ≤0.49 indicate that the at-risk allele is the minor allele. Allele frequencies ≥0.50 indicate that the at-risk allele is the major allele. An example of a SNP associated with increased risk for an adverse cardiovascular event in the placebo group using a dominant genotypic test is hCV25644901. […] However, this same SNP was protective in the statin treated group with a RR of 0.58. An example of a SNP associated with an adverse cardiovascular event in the placebo group using the allelic association test is hCV16044337 with a RR of 1.87 for the homozygous AA genotype. This same genotype was protective in the statin treated group with a RR of 0.56.", "data": [{"smiles": "CC[C@H](C)C(=O)O[C@H]1C[C@H](O)C=C2C=C[C@H](C)[C@H](CC[C@@H](O)C[C@@H](O)CC(=O)O)[C@H]21", "note": "[pravastatin]", "values": [{"measurement": "RR (relative risk for RMI)", "setting": "ABCA1 hCV2741051, Het(TC) stratum, Statin vs Placebo", "result": 0.92}, {"measurement": "RR (relative risk for RMI)", "setting": "ABCA1 hCV2741051, Maj Hom(CC) stratum, Statin vs Placebo", "result": 0.59}, {"measurement": "RR (relative risk for RMI)", "setting": "ABCA1 hCV2741051, Min Hom(TT) stratum, Statin vs Placebo", "result": 1.25}, {"measurement": "RR (relative risk for RMI)", "setting": "ABCA1 hCV2741051, Statin stratum, het(TC) vs. ref(CC)", "result": 1.09}, {"measurement": "RR (relative risk for RMI)", "setting": "ABCA1 hCV2741051, Statin stratum, hom(TT) vs. ref(CC)", "result": 1.14}, {"measurement": "RR (relative risk for RMI)", "setting": "ABCA1 hCV2741083, Het(TC) stratum, Statin vs Placebo, covars none", "result": 1.51}, {"measurement": "RR (relative risk for RMI)", "setting": "ABCA1 hCV2741083, Maj Hom(TT) stratum, Statin vs Placebo, covars none", "result": 0.61}, {"measurement": "RR (relative risk for RMI)", "setting": "ABCA1 hCV2741083, Min Hom(CC) stratum, Statin vs Placebo, covars none", "result": 1.36}, {"measurement": "RR (relative risk for RMI)", "setting": "ABCA1 hCV2741083, Statin stratum, het(TC)vs. ref(TT), covars none", "result": 1.29}, {"measurement": "RR (relative risk for RMI)", "setting": "ABCA1 hCV2741083, Statin stratum, hom (CC)vs. ref(TT), covars none", "result": 1.00}, {"measurement": "RR (relative risk for RMI)", "setting": "ATF6 hCV25631989, Het (TC) stratum, Statin vs Placebo", "result": 2.43}, {"measurement": "RR (relative risk for RMI)", "setting": "ATF6 hCV25631989, Maj Hom (CC) stratum, Statin vs Placebo", "result": 0.66}, {"measurement": "RR (relative risk for RMI)", "setting": "ATF6 hCV25631989, Statin stratum, het(TC) vs. ref (CC)", "result": 1.53}, {"measurement": "RR (relative risk for RMI)", "setting": "CYBA hCV2038, Het(AG) stratum, Statin vs Placebo, covars hx_smoke", "result": 0.74}, {"measurement": "RR (relative risk for RMI)", "setting": "CYBA hCV2038, Maj Hom(GG) stratum, Statin vs Placebo, covars hx_smoke", "result": 0.55}, {"measurement": "RR (relative risk for RMI)", "setting": "CYBA hCV2038, Min Hom(AA) stratum, Statin vs Placebo, covars hx_smoke", "result": 1.38}, {"measurement": "RR (relative risk for RMI)", "setting": "CYBA hCV2038, Statin stratum, het(AG) vs. ref(GG), covars hx_smoke", "result": 1.40}, {"measurement": "RR (relative risk for RMI)", "setting": "CYBA hCV2038, Statin stratum, hom(AA) vs. ref(GG), covars hx_smoke", "result": 2.02}, {"measurement": "RR (relative risk for RMI)", "setting": "EDG3 hCV25610470, Het(GA) stratum, Statin vs Placebo, covars HX_SMOKE", "result": 0.22}, {"measurement": "RR (relative risk for RMI)", "setting": "EDG3 hCV25610470, Maj Hom(GG) stratum, Statin vs Placebo, covars HX_SMOKE", "result": 0.77}, {"measurement": "RR (relative risk for RMI)", "setting": "EDG3 hCV25610470, Min Hom(AA) stratum, Statin vs Placebo, covars HX_SMOKE", "result": 1.10}, {"measurement": "RR (relative risk for RMI)", "setting": "EDG3 hCV25610470, Statin stratum, het(GA) vs. ref(GG), covars HX_SMOKE", "result": 0.37}, {"measurement": "RR (relative risk for RMI)", "setting": "F7 hCV783184, Het(TG) stratum, Statin vs Placebo", "result": 1.10}, {"measurement": "RR (relative risk for RMI)", "setting": "F7 hCV783184, Maj Hom(GG) stratum, Statin vs Placebo", "result": 0.64}, {"measurement": "RR (relative risk for RMI)", "setting": "F7 hCV783184, Min Hom(TT) stratum, Statin vs Placebo", "result": 2.59}, {"measurement": "RR (relative risk for RMI)", "setting": "F7 hCV783184, Statin stratum, het (TG) vs. ref(GG)", "result": 1.28}, {"measurement": "RR (relative risk for RMI)", "setting": "F7 hCV783184, Statin stratum, hom(TT) vs. ref(GG)", "result": 1.65}, {"measurement": "RR (relative risk for RMI)", "setting": "FCAR hCV7841642, Het(GA) stratum, Statin vs Placebo", "result": 0.32}, {"measurement": "RR (relative risk for RMI)", "setting": "FCAR hCV7841642, Maj Hom(GG) stratum, Statin vs Placebo", "result": 0.82}, {"measurement": "RR (relative risk for RMI)", "setting": "FCAR hCV7841642, Min Hom(AA) stratum, Statin vs Placebo", "result": 1.33}, {"measurement": "RR (relative risk for RMI)", "setting": "FCAR hCV7841642, Statin stratum, het(GA) vs. ref(GG)", "result": 0.60}, {"measurement": "RR (relative risk for RMI)", "setting": "FCAR hCV7841642, Statin stratum, hom (AA)vs. ref(GG)", "result": 1.38}, {"measurement": "RR (relative risk for RMI)", "setting": "FN1 hCV9506149, Het(TA) stratum, Statin vs Placebo", "result": 0.90}, {"measurement": "RR (relative risk for RMI)", "setting": "FN1 hCV9506149, Maj Hom(AA) stratum, Statin vs Placebo", "result": 0.58}, {"measurement": "RR (relative risk for RMI)", "setting": "FN1 hCV9506149, Min Hom(TT) stratum, Statin vs Placebo", "result": 1.10}, {"measurement": "RR (relative risk for RMI)", "setting": "FN1 hCV9506149, Statin stratum, het(TA) vs. ref(AA)", "result": 1.15}, {"measurement": "RR (relative risk for RMI)", "setting": "FN1 hCV9506149, Statin stratum, hom(TT) vs. ref(AA)", "result": 1.72}, {"measurement": "RR (relative risk for RMI)", "setting": "HLA-DPB1 hCV8851085, Het(GA) stratum, Statin vs Placebo, covars hx_smoke", "result": 0.87}, {"measurement": "RR (relative risk for RMI)", "setting": "HLA-DPB1 hCV8851085, Maj Hom(GG) stratum, Statin vs Placebo, covars hx_smoke", "result": 0.58}, {"measurement": "RR (relative risk for RMI)", "setting": "HLA-DPB1 hCV8851085, Min Hom(AA) stratum, Statin vs Placebo, covars hx_smoke", "result": 2.19}, {"measurement": "RR (relative risk for RMI)", "setting": "HLA-DPB1 hCV8851085, Statin stratum, het (GA)vs. ref(GG), covars hx_smoke", "result": 1.40}, {"measurement": "RR (relative risk for RMI)", "setting": "HLA-DPB1 hCV8851085, Statin stratum, hom(AA) vs. ref(GG), covars hx_smoke", "result": 1.97}, {"measurement": "RR (relative risk for RMI)", "setting": "HSPG2 hCV1603656, Het(TC) stratum, Statin vs Placebo, covars hx_smoke", "result": 0.42}, {"measurement": "RR (relative risk for RMI)", "setting": "HSPG2 hCV1603656, Maj Hom (CC) stratum, Statin vs Placebo, covars hx_smoke", "result": 0.80}, {"measurement": "RR (relative risk for RMI)", "setting": "HSPG2 hCV1603656, Statin stratum, het (TC)vs. ref(CC), covars hx_smoke", "result": 0.65}, {"measurement": "RR (relative risk for RMI)", "setting": "HSPG2 hCV1603692, Het(TC) stratum, Statin vs Placebo, covars none", "result": 0.37}, {"measurement": "RR (relative risk for RMI)", "setting": "HSPG2 hCV1603692, Maj Hom (CC) stratum, Statin vs Placebo, covars none", "result": 0.79}, {"measurement": "RR (relative risk for RMI)", "setting": "HSPG2 hCV1603692, Statin stratum, het (TC)vs. ref(CC), covars none", "result": 0.65}, {"measurement": "RR (relative risk for RMI)", "setting": "HSPG2 hCV1603697, Het(TC) stratum, Statin vs Placebo, covars none", "result": 0.37}, {"measurement": "RR (relative risk for RMI)", "setting": "HSPG2 hCV1603697, Maj Hom (CC) stratum, Statin vs Placebo, covars none", "result": 0.80}, {"measurement": "RR (relative risk for RMI)", "setting": "HSPG2 hCV1603697, Statin stratum, het (TC)vs. ref(CC), covars none", "result": 0.65}]}]}
